Experimental data reported in US4522815A, “Anthracycline glycosides” (priority 1982, dated 1985).
In brackets after ≈: the same amount, converted by molar mass. Where two headings read alike, the source gives them in different places.

What was measured:
[1] = Antitumor activity against ascitic P388 leukemia in CDF-1 mice, treatment i.p. on day 1; type: in vivo; conditions: mouse, in vivo, ip, CDF-1 mice; read-out: Maximal Tolerated Dose (Mx TD)
Experimental: (§1) The primary screening […] was carried out in CDF-1 mice bearing ascitic P388 leukemia (10^6 cells/mouse). Both IIa and IIc were suspended in 10%. Tween 80 and injected intraperitoneally.
(§2) Results of the primary screening "in vivo" carried out in CDF-1 mice bearing P388 ascitic leukemia and treated i.p. the day after tumor transplantation, are reported in Table 5.
(§3) Antitumor activity against ascitic P388 leukekemia.
(§4) Treatment i.p. on day 1.
(§5) ^a median survival time; % over untreated controls
(§6) ^b long term survivors (≥ 60 days)
(§7) ^c evaluated on the basis of autoptic findings on dead mice
(§8) ^d data of two experiments (range)
(§9) ^e date of three experiments (range)
(§10) Antitumor activity of Ib and Id against ascitic P388
as §4

ascitic P388 leukemia = assay: as above; type: in vivo
Experimental: as §1, §2, §3, §4, §5, §6, §7, §8, §9, §10, §4

HeLa cells = assay: Colony inhibition test against HeLa cells in vitro (cloning efficiency), treatment for 24 hrs; type: cell-based; conditions: for activity at 0.0062 µg/mL: 6.2 ng/ml; for activity at 0.025 µg/mL: 25 ng/ml; for IC50: HeLa colony inhibition; for activity at 0.0125 µg/mL: 12.5 ng/ml
Gross leukemia [2] = assay: Antitumor activity against i.v. transplanted Gross leukemia in C3H/Me mice, treatment i.v. on day 1; type: in vivo; conditions: Table 6
Text: (§11) Results of studies performed in C3H/Me mice carrying i.v. transplanted Gross leukemia and treated i.v. the day after tumor transplantation, are reported in Table 6. […] The compounds Ib and Id were further investigated for oral activity on Gross leukemic transplanted i.v., in comparison with DNR, DX given i.v. and 4-dm DNR given oral route.
Antitumor activity against i.v. Gross leukemia.
Treatment i.v. on day 1.

[3] = tested on: P388 leukemia cells resistant to DX (P388/DX); assay: Cytotoxicity on doxorubicin-resistant P388/DX leukemia cells in vitro, 48 hrs exposure; type: cell-based, mice
Experimental: Compounds Ib and Id were studied "in vitro" on HeLa and P388 leukemia cells sensitive (P388) and resistant (P388/DX) to DX and […].
Compound Ib was studied on P388/DX "in vitro".
P388 and P388/DX leukemia cells were harvested from mice ascitic fluid and adapted to grow in suspension "in vitro". Cytotoxicity tests were carried out exposing the cells to various drug concentrations for 48 hrs; at the end of the exposure period, cells were counted with a coulter cell counter, and the ID50 (dose which gives 50% reduction of the cell number in comparison with untreated controls) was calculated.
Effect on sensitive and doxorubicin-resistant P388
^a Dose giving 50% reduction of cell number in comparison with
^c P388 leukemia cells resistant to DX
^d Ratio between ID50 on P388/DX and ID50 on P388

Gross leukemia [4] = assay: Oral activity against i.v. transplanted Gross leukemia (i.v. comparators); type: in vivo, C3H/Me mice; conditions: Table 7, i.v. +1
Text: as §11
Oral activity of Ib and Id against Gross leukemia
^a days after transplantation
as §8

[5] = tested on: P388 leukemia cells sensitive to DX; assay: Cytotoxicity on doxorubicin-sensitive P388 leukemia cells in vitro, 48 hrs exposure; type: cell-based, mice; conditions: Mus musculus, P388; dose giving 50% reduction of cell number vs untreated controls; 48 hrs; read-out: ID50 P388
Text: P388 and P388/DX leukemia cells were harvested from mice ascitic fluid and adapted to grow in suspension "in vitro".

[6] = Homo sapiens, HeLa, Table 1, 24 hrs, read-out: No of colonies, % of untreated controls
[7] = Table 2, 4.4 mg/kg i.p. day 1, two experiments
[8] = Table 2, 6.6 mg/kg i.p. day 1, two (DNR) or three (DX) experiments
[9] = Table 5, 2.9 mg/kg i.p. day 1, two experiments
[10] = Table 5, 4.4 mg/kg i.p. day 1, DNR: two experiments
[11] = Homo sapiens, HeLa, 24 h, read-out: No of colonies, % of untreated controls, Table 1, 24 hrs
[12] = Homo sapiens, HeLa, 24 h, read-out: No of colonies, % of untreated controls, Table 3, 24 hrs

## COc1cccc2c1C(=O)c1c(O)c3c(c(O)c1C2=O)C[C@@](O)(C(C)=O)C[C@@H]3O[C@H]1C=C[C@@H](O)[C@H](C)O1 [Compound IIa, 7-0-(2,3,6-trideoxy-α-L-erythro-hex-2-enopyranosyl)-daunomycinone]
[1]
  MTD: 100 mg/kg
Ascitic P388 leukemia; Table 2, 75 mg/kg i.p. day 1
  LTS, long term survivors (≥ 60 days): 0/5
  T/C, median survival time; % over untreated controls: 120%
  Toxic deaths (autoptic findings on dead mice): 0/5
Ascitic P388 leukemia; Table 2, 100 mg/kg i.p. day 1
  LTS, long term survivors (≥ 60 days): 0/10
  T/C, median survival time; % over untreated controls: 90%
  Toxic deaths (autoptic findings on dead mice): 1/10
Ascitic P388 leukemia; ascitic P388, i.p.
  toxicity and potency vs parent drugs DNR and DX: less toxic and potent than the parent drugs DNR and DX
Ascitic P388 leukemia; i.p. day 1, IIa: two doses tested incl. Mx TD
  antitumor activity on P388 ascitic leukemia: inactive
HeLa cells; HeLa cells cloning efficiency, vs DNR
  times less cytotoxic than DNR: about 25 times
HeLa cells; Homo sapiens, HeLa, Table 1, 1.5 ng/ml, 24 hrs, read-out: No of colonies, % of untreated controls
  activity at 0.0015 µg/mL: 120%
HeLa cells; [6]
  activity at 0.0062 µg/mL: 127%
  activity at 0.025 µg/mL: 143%
HeLa cells; Homo sapiens, HeLa, Table 1, 100 ng/ml, 24 hrs, read-out: No of colonies, % of untreated controls
  activity at 0.1 µg/mL: 136%
HeLa cells; Homo sapiens, HeLa, Table 1, 400 ng/ml, 24 hrs, read-out: No of colonies, % of untreated controls
  activity at 0.4 µg/mL: 146%
HeLa cells; Homo sapiens, Table 1, 24 hrs, read-out: ID50 (the source's name)
  IC50: 0.4 µg/mL (≈ 0.784 µM)

## COc1cccc2c1C(=O)c1c(O)c3c(c(O)c1C2=O)C[C@@](O)(C(C)=O)C[C@@H]3O[C@H]1C[C@H](N)[C@H](O)[C@H](C)O1 [DNR, daunorubicin, reference compound]
Ascitic P388 leukemia; Table 2, 2.9 mg/kg i.p. day 1
  LTS, long term survivors (≥ 60 days): 0/10
  T/C, median survival time; % over untreated controls: 160%
  Toxic deaths (autoptic findings on dead mice): 0/10
Ascitic P388 leukemia; Table 2, 4.4 mg/kg i.p. day 1, data of two experiments (range)
  T/C, median survival time; % over untreated controls: 165-170%
Ascitic P388 leukemia; [7]
  LTS, long term survivors (≥ 60 days): 0/10
  Toxic deaths (autoptic findings on dead mice): 0/20
Ascitic P388 leukemia; Table 2, 6.6 mg/kg i.p. day 1, range of two (DNR) or three (DX) experiments
  T/C, median survival time; % over untreated controls: 150-160%
Ascitic P388 leukemia; [8]
  LTS, long term survivors (≥ 60 days): 0/10
  Toxic deaths (autoptic findings on dead mice): 7/20
Ascitic P388 leukemia; [9]
  LTS, long term survivors (≥ 60 days): 0/18
  Toxic deaths (autoptic findings on dead mice): 0/8
Ascitic P388 leukemia; Table 5, 2.9 mg/kg i.p. day 1, two experiments (range)
  T/C, median survival time; % over untreated controls: 159-194%
Ascitic P388 leukemia; [10]
  LTS, long term survivors (≥ 60 days): 0/18
  Toxic deaths (autoptic findings on dead mice): 7/18
Ascitic P388 leukemia; Table 5, 4.4 mg/kg i.p. day 1, DNR: two experiments (range)
  T/C, median survival time; % over untreated controls: 140-184%
Gross leukemia [2]; 15 mg/kg i.v. day 1
  T/C, median survival time; % over untreated controls: 171%
  Toxic deaths: 0/8
Gross leukemia [2]; 22.5 mg/kg i.v. day 1
  T/C, median survival time; % over untreated controls: 171%
  Toxic deaths: 0/8
[3]; Mus musculus, P388/DX, dose giving 50% reduction of cell number vs untreated controls, 48 hrs, read-out: ID50 P388/DX
  IC50: 0.8 µg/mL (≈ 1.52 µM)
[3]; P388/DX vs P388, 2880 min
  fold less active on the resistant than on the sensitive line: about 500 fold
[3]; Table 4, 2880 min
  R: Ratio between ID50 on P388/DX and ID50 on P388: 470
Gross leukemia [4]; 15 mg/kg
  T/C %, median survival time: 200%
  Toxic deaths: 0/10
Gross leukemia [4]; 22.5 mg/kg
  T/C %, median survival time: 125%
  Toxic deaths: 6/10
[5]
  IC50: 1.7 ng/mL (≈ 0.00322 µM)
HeLa cells; Homo sapiens, HeLa, 24 h, read-out: ID50, Table 1, 24 hrs
  IC50: ~0.016 µg/mL (≈ 0.0303 µM)
HeLa cells; Homo sapiens, HeLa, 24 h, read-out: ID50, Table 3, 24 hrs
  IC50: ~0.012 µg/mL (≈ 0.0227 µM)
HeLa cells; [11]
  activity at 0.0062 µg/mL: 106%
  activity at 0.0125 µg/mL: 74%
  activity at 0.025 µg/mL: 12%
HeLa cells; [12]
  activity at 0.0062 µg/mL: 83%
  activity at 0.0125 µg/mL: 51%
  activity at 0.025 µg/mL: 9%
